Results reported in patent US7307063B2, “Melanocortin metallopeptides for treatment of sexual dysfunction” (Palatin Technologies, Inc., priority 2001, dated 2007).
Non-standard residues stand in square brackets, D forms with d. No end group written: not given here. *: point of attachment. Bip = N[C@@H](Cc1ccc(-c2ccccc2)cc1)C(=O)O; dBip = N[C@H](Cc1ccc(-c2ccccc2)cc1)C(=O)O; 2Nal = N[C@@H](Cc1ccc2ccccc2c1)C(=O)O; Heptanoyl = CCCCCCC(=O)*; Nle = CCCC[C@H](N)C(=O)O; Bn = c1ccc(C*)cc1

Key:
MC1-R = target: T1, MC1-R (Mus musculus, UniProt Q01727); assay: Competitive binding assay: inhibition of 125I-NDP-α-MSH binding to membranes from B16-F10 mouse melanoma cells; conditions: Table 6, mean of triplicate
T1 construct: MC1-R membranes were isolated from B16—F10 mouse melanoma cells; endogenous in cells; host or cells: B16-F10 mouse melanoma cells
Procedure: (§1) Rhenium-complexed metallopeptides of the formulas given in Table 1 were prepared, with the metallopeptides complexed with rhenium using the rhenium transfer agent ReOCl3(PPh3)2 in the presence of 1,8-Diazabicyclo[5,4,0] undec-7-ene as a base, as disclosed in International Application PCT/US00/16396, filed Jun. 14, 2000, Melanocortin Metallopeptide Constructs, Combinatorial Libraries and Applications, incorporated by reference herein. Affinities of compounds were measured using membranes from HEK-293 cells containing cloned human melanocortin receptor subtypes 3, 4 and 5. MC1-R membranes were isolated from B16—F10 mouse melanoma cells. The assay tube also contained a chosen concentration of the test peptide of this invention, complexed to a rhenium metal ion as indicated, for determining its efficacy in inhibiting the binding of ^125I-NDP-α-MSH to its receptor. Non-specific binding was measured by complete inhibition of binding of ^125I-NDP-α-MSH in the assay with the presence of 1 μM α-MSH. 100% specific binding was defined as the difference in radioactivity (cpm) bound to cell membranes in the absence and presence of 1 μM α-MSH. The cpm obtained in presence of test compounds were normalized with respect to 100% specific binding to determine the percent inhibition of ^125I-NDP-α-MSH binding.
(§2) Peptide sequences set forth in Table 6 were prepared using conventional synthetic means. The resulting sequences were rhenium-complexed to form metallopeptides, with the metallopeptides complexed with rhenium using the rhenium transfer agent ReOCl3(PPh3)2 in the presence of 1,8-Diazabicyclo[5,4,0] undec-7-ene as a base. Percent inhibition was determined as in Example 1 using the Re-complexed metallopeptides, using the same methods as described therein. All measures are means of triplicate determinations.

hMC2-R = target: T2, hMC2-R (Homo sapiens, UniProt P41968); assay: Competitive binding assay of additional compounds, Table 6 hMC2-R; conditions: 1 μM, mean of triplicate
T2 construct: expressed in transfected cells; host or cells: HEK-293
Procedure: [The source words this procedure for another target and reports this target under the same test.] as §1, §2

MC4-R = target: T3, MC4-R (Homo sapiens, UniProt P32245); assay: Competitive binding assay: inhibition of 125I-NDP-α-MSH binding to HEK-293 membranes with cloned human receptor subtype 4; conditions: Table 6, mean of triplicate
T3 construct: expressed in transfected cells; host or cells: HEK-293
Procedure: as §1, §2

T2 sequence (P41968 whole entry): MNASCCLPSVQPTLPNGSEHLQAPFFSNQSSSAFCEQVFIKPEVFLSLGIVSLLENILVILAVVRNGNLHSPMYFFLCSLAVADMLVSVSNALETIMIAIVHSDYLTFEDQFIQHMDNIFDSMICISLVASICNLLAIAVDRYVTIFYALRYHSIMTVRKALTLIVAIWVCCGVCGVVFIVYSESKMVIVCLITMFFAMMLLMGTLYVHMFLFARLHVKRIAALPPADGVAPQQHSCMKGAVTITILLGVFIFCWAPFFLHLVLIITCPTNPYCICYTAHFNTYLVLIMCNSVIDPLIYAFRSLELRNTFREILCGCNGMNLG
T1 sequence (Q01727 whole entry): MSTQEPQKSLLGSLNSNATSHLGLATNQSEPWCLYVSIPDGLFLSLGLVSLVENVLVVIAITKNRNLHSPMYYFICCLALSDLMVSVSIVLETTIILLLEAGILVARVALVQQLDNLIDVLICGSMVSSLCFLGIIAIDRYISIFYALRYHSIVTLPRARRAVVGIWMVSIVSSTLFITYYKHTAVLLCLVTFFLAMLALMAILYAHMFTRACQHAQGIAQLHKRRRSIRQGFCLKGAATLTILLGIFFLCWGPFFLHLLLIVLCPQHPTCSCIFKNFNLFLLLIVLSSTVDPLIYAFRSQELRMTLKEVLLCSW
T3 sequence (P32245 whole entry): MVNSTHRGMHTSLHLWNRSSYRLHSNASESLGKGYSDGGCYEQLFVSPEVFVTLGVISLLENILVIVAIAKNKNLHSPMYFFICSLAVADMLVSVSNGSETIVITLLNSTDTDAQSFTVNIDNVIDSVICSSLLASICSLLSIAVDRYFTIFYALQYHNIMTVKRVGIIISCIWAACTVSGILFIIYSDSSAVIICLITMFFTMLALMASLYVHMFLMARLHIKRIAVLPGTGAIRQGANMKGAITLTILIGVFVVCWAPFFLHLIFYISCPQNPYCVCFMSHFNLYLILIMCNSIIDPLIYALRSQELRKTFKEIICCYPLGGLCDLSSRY

| Substance | % Inhibition of Binding MC1-R (MC1-R; 1 μM) | % Inhibition of Binding hMC4-R (MC4-R; 1 μM) | other results |
| --- | --- | --- | --- |
| Ac-[Nle]AH[dF]RC[Bip]-NH2 | 82% |  | % Inhibition of Binding hMC2-R (hMC2-R): 100% |
| Heptanoyl-S(Bn)[dBip]RWC-NH2 | 84% |  | % Inhibition of Binding hMC2-R (hMC2-R): 0% |
| Ac-[Nle]AH[dF]R[Bip]C-NH2 | 35% |  | % Inhibition of Binding hMC2-R (hMC2-R): 100% |
| Ac-[Nle]AH[dBip]RCW-NH2 | 72% |  | % Inhibition of Binding hMC2-R (hMC2-R): 100% |
| Ac-[Nle]AH[dBip]RWC-NH2 | 99% |  | % Inhibition of Binding hMC2-R (hMC2-R): 100% |
| [dF]RW[dC]W-NH2 | 53% | 45% |  |
| 4′-Aminomethyl-Phenylacetyl-Arg-Arg-D-Phe(4′-Cl)-Cys-Trp-NH2 |  |  | % Inhibition of Binding MC1-R (MC1-R; 0.1 μM): 81%; % Inhibition of Binding hMC4-R (MC4-R; 0.1 μM): 57% |
| [dF]R[dW]CW-NH2 | 37% | 32% |  |
| Ac-WA[dF][dC]RW-NH2 | 15% | 3% |  |
| Heptanoyl-Ser(Bzl)-D-Nal 2′-Arg-Trp-Cys-Lys-NH2 | 72% | 100% |  |
| 3′-Br-Phenylacetyl-Lys-Ala-D-Phe(4′-CH3)Cys-Lys-NH2 | 34% | 73% |  |
| Ac-Nle-Arg-Ala-D-Nal 2′-Cys-Lys-NH2 | 23% | 36% |  |
| Phe-Arg-Trp-Cys-Trp-NH2 (FRWCW-NH2; not fully specified; printed as Phe-Arg-Trp-Cys-Trp-NH2) | 32% | 24% |  |
| Heptanoyl-Ser(Bzl)-D-Phe(4′-Cl)-Arg-Tyr(3′-l)-Cys-NH2 |  |  | % Inhibition of Binding MC1-R (MC1-R; 0.1 μM): 12%; % Inhibition of Binding hMC4-R (MC4-R; 0.1 μM): 92% |
| Heptanoyl-Ser(Bzl)-D-Phe(2′-Cl)-Lys-Nal 2′-Cys-NH2 | 62% | 91% |  |
| Ac-[Nle]AH[dBip]RC[Bip]-NH2 | 77% |  | % Inhibition of Binding hMC2-R (hMC2-R): 100% |
| Heptanoyl-Ser(Bzl)-D-Phe(4′-Cl)-Arg-Thr(Bzl)-Cys-NH2 | 4% | 92% |  |
| Ser(Bzl)-D-Phe(2′-Cl)-Lys-Nal 2′-Cys-NH2 | 33% | 50% |  |
| Heptanoyl-Ser(Bzl)-D-Phe(4′-Cl)-Arg-Phe(3′-Cl)-Cys-NH2 |  |  | % Inhibition of Binding MC1-R (MC1-R; 0.1 μM): 27%; % Inhibition of Binding hMC4-R (MC4-R; 0.1 μM): 67% |
| Heptanoyl-Ser(Bzl)-D-Phe(4′-Cl)-Arg-Tyr(2′,6′-diCl-Bzl)-Cys-NH2 | 19% | 0% |  |
| Heptanoyl-Ser(Bzl)-D-Phe(4′-Cl)-Arg-Tyr(3′,5′-Di-l)-Cys-NH2 |  |  | % Inhibition of Binding MC1-R (MC1-R; 0.1 μM): 10%; % Inhibition of Binding hMC4-R (MC4-R; 0.1 μM): 85% |
| HyP(Bzl)-D-Phe(2′-Cl)-Nal 2′-Cys-NH2 | 57% | 85% |  |
| Heptanoyl-Ser(Bzl)-D-Phe(4′-Cl)-Arg-Tyr-Cys-NH2 |  |  | % Inhibition of Binding MC1-R (MC1-R; 0.1 μM): 6%; % Inhibition of Binding hMC4-R (MC4-R; 0.1 μM): 13% |
| Heptanoyl-Ser(Bzl)-D-Phe(2′-F)-Lys-Nal 2′-Cys-NH2 | 57% | 83% |  |
| Heptanoyl-Ser(Bzl)-D-Phe(2′-Cl)-Lys-Phe-Cys-NH2 | 20% | 19% |  |
| Heptanoyl-H[dF]RWCK-NH2 | 100% | 98% |  |

| Substance | % Inhibition of Binding MC1-R (MC1-R; 1 μM) | % Inhibition of Binding hMC4-R (MC4-R; 1 μM) | other results |
| --- | --- | --- | --- |
| Heptanoyl-D-Phe-Arg-Trp-Cys-Lys-NH2 (Heptanoyl-[dF]RWCK-NH2; also: metallopeptide) | 82% | 75% |  |
| Phe-Arg-Trp-Cys-Lys-NH2 (FRWCK-NH2; not fully specified; printed as Phe-Arg-Trp-Cys-Lys-NH2) | 53% | 64% |  |
| Heptanoyl-S(Bn)[dBip]R[Bip]C-NH2 | 30% |  | % Inhibition of Binding hMC2-R (hMC2-R): 0% |
| Heptanoyl-Ser(Bzl)-D-Phe(4′-Cl)-Arg-Hphe-Cys-NH2 | 38% | 43% |  |
| Ser(Bzl)-D-Phe(4′-Cl)-Arg-D-Trp-Cys-NH2 | 65% | 82% |  |
| 1′-Naphthyl acetyl-Arg-Arg-D-Phe(4′-Cl)-Cys-Trp-NH2 | 97% | 98% |  |
| 3′-Cl Phenyl acetyl-Arg-Ala-D-Phe(4′-CF3)-Cys-Trp-NH2 | 21% | 95% |  |
| Heptanoyl-Hphe-D-Phe(4′-Cl)-Arg-Trp-Cys-NH2 |  |  | % Inhibition of Binding MC1-R (MC1-R; 0.1 μM): 45%; % Inhibition of Binding hMC4-R (MC4-R; 0.1 μM): 80% |
| Ac-Nle-Arg-Arg-D-Nal 2′-Cys-Lys-NH2 | 100% | 96% |  |
| Ac-KA[dF][dC]RW-NH2 | 25% | 13% |  |
| Heptanoyl-R[dF]GWCK-NH2 | 92% | 32% |  |
| D-Phe(4′-Cl)-Arg-Nal 2′-Cys-Lys-NH2 |  |  | % Inhibition of Binding MC1-R (MC1-R; 0.01 μM): 43%; % Inhibition of Binding hMC4-R (MC4-R; 0.01 μM): 73% |
| Heptanoyl-Ser(Bzl)-D-Phe(4′-Cl)-Arg-Asp(OcHx)-Cys-NH2 |  |  | % Inhibition of Binding MC1-R (MC1-R; 0.1 μM): 15%; % Inhibition of Binding hMC4-R (MC4-R; 0.1 μM): 25% |
| Heptanoyl-Ser(Bzl)-D-Phe(4′-Br)-Arg-Trp-Cys-NH2 |  |  | % Inhibition of Binding MC1-R (MC1-R; 0.1 μM): 21%; % Inhibition of Binding hMC4-R (MC4-R; 0.1 μM): 90% |
| Heptanoyl-Ser(Bzl)-D-Phe(4′-Cl)-Arg-Tyr(Bzl)-Cys-NH2 | 16% | 85% |  |
| (R)-4-amino-5-phenyl pentanoyl-Lys-Ala-D-Phe(4′-Me)-Cys-Trp-NH2 | 23% | 46% |  |
| Heptanoyl-Ala-Nal 2′-Cys-Trp-NH2 (Heptanoyl-A[2Nal]CW-NH2; also: metallopeptide, metal not given here) | 15% | 18% |  |
| Heptanoyl-Ser(Bzl)-D-Phe(2′-Cl)-Lys-Phg-Cys-NH2 | 16% | 15% |  |
| Heptanoyl-Ser(Bzl)-D-Phe(4′-Cl)-Arg-Nal 2′-Cys-Lys-NH2 |  |  | % Inhibition of Binding MC1-R (MC1-R; 0.1 μM): 78%; % Inhibition of Binding hMC4-R (MC4-R; 0.1 μM): 97% |
| D-Phe-Arg-Trp-Cys-Trp-NH2 ([dF]RWCW-NH2; also: metallopeptide) | 90% | 70% |  |
| PhCO-D-Phe(2′-Cl)-Lys-Nal 2′-Cys-NH2 | 60% | 41% |  |
| D-Phe(2′-Cl)-Lys-Nal 2′-Cys-NH2 | 51% | 69% |  |
| 3′-Br-Phenylacetyl-Lys-Lys-D-Phe(4′-CH3)Cys-Lys-NH2 | 65% | 69% |  |
| 3′-Br Phenyl acetyl-Arg-Arg-D-Phe(3′-Cl)-Cys-Trp-NH2 | 79% | 96% |  |
| 3′-Cl Phenyl acetyl-Arg-Arg-D-Phe(4′-CF3)-Cys-Trp-NH2 | 85% | 99% |  |
